Five compounds from US11566007B2, “Ras inhibitors” (Revolution Medicines, Inc., priority 2019, dated 2023) can be followed below.

Usually IC50 stands for the midpoint of a concentration-inhibition curve. The EC50 is the midpoint of the concentration-response curve.

Read-outs that look alike come from different tables or passages of the source.

One assay addresses KRAS G12D (Homo sapiens (Human), UniProt P01116+P62937, G12D). As to the kind of experiment: Ras-Raf (BRAF RBD) disruption / FRET / MOA assay, KRAS G12D. Type of assay: biochemical. The following applies: class symbols. Summed up:
(§1)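 Compounds, top final concentration 30 μM in 10-point 3-fold series, incubated 3 hours at 25° C with nucleotide-loaded Ras, cyclophilin A and BRAF RBD.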

Another assay addresses KRAS G13D (Homo sapiens (Human), UniProt P01116+P62937, G13D). As to the kind of experiment: Ras-Raf (BRAF RBD) disruption / FRET / MOA assay, KRAS G13D. Type of assay: biochemical. The procedure: (§2) The purpose of this biochemical assay is to measure the ability of test compounds to facilitate ternary complex formation between a nucleotide-loaded Ras isoform and cyclophilin A; the resulting ternary complex disrupts binding to a BRAF^RBD construct, inhibiting Ras signaling through a RAF effector.
(§3) Compound is present in plate wells as a 10-point 3-fold dilution series starting at a final concentration of 30 μM. After incubation at 25° C. for 3 hours, a mixture of Anti-His Eu-W1024 and anti-GST allophycocyanin is then added to assay sample wells at final concentrations of 10 nM and 50 nM, respectively, and the reaction incubated for an additional 1.5 hours. […] Compounds that facilitate disruption of a Ras:RAF complex are identified as those eliciting a decrease in the TR-FRET ratio relative to DMSO control wells.
(§4) This protocol may also be executed substituting other Ras proteins or nucleotides.
(§5) The purpose of this biochemical assay was to measure the ability of test compounds to facilitate ternary complex formation between a nucleotide-loaded K-Ras isoform and Cyclophilin A; the resulting ternary complex disrupts binding to a BRAF^RBD construct, inhibiting K-Ras signaling through a RAF effector. Data is reported as IC50 values.
(§6) Compound was present in plate wells as a 10-point 3-fold dilution series starting at a final concentration of 30 μM. After incubation at 25° C. for 3 hours, a mixture of Anti-His Eu-W1024 and anti-GST allophycocyanin was then added to assay sample wells at final concentrations of 10 nM and 50 nM, respectively, and the reaction incubated for an additional 1.5 hours. […] Compounds that facilitate disruption of a K-Ras:RAF complex were identified as those eliciting a decrease in the TR-FRET ratio relative to DMSO control wells.

For the next assay, the target named is K-Ras G12C (Homo sapiens (Human), UniProt P01116+P62937, G12C). As to the kind of experiment: Ras-Raf (BRAF RBD) disruption / FRET / MOA assay, KRAS G12C. As to conditions: KRAS G12C, Ras-Raf disruption/FRET/MOA assay. The format is biochemical. The procedure: as §2, §3, §4, §5, §6
Another assay deals with K-Ras G13C (Homo sapiens (Human), UniProt P01116+P62937, G13C). Briefly: Ras-Raf (BRAF RBD) disruption / FRET / MOA assay, KRAS G13C. As to conditions: KRAS G13C, Ras-Raf disruption/FRET/MOA assay. The format is biochemical. The procedure:
as §2, §3, §4, §5, §6

In another assay the target is KRAS G12V (Homo sapiens (Human), UniProt P01116+P62937, G12V). As to the kind of experiment: Ras-Raf (BRAF RBD) disruption / FRET / MOA assay, KRAS G12V. The format is biochemical. As for the experimental part:
as §2, §3, §4, §5, §6

For a further assay, the target named is NRAS G12C (Homo sapiens (Human), UniProt P01111+P62937, G12C). As to the kind of experiment: Ras-Raf (BRAF RBD) disruption / FRET / MOA assay, NRAS G12C. Type of assay: biochemical. The procedure: as §2, §3
This protocol may also be executed substituting other Ras proteins or nucleotides. […]

For another assay, the target named is KRAS WT (Homo sapiens (Human), UniProt P01116+P62937). Briefly: Ras-Raf (BRAF RBD) disruption / FRET / MOA assay, KRAS WT. Type of assay: biochemical. As for the experimental part:
as §2, §3, §4, §5, §6

The next assay addresses KRAS G12S (Homo sapiens (Human), UniProt P01116+P62937, G12S). Briefly: Ras-Raf (BRAF RBD) disruption / FRET / MOA assay, KRAS G12S. The following applies: class symbols. The format is biochemical. A digest of the protocol: as §1
The test system of assay [1] is NCI-H358 cells (K-Ras G12C). As to the kind of experiment: Potency assay: pERK in NCI-H358 cells. Type of assay: cell-based, human. The following applies: H358 KRAS G12C; read-out: pERK EC50. A digest of the protocol:
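pERK decrease read by AlphaLISA SureFire p-ERK1/2 or In-Cell Western after 4 h compound exposure at 37 °C, 5% CO2.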

A further assay deals with NCI-H358 (K-Ras G12C). Briefly: CellTiter-Glo cell viability assay, NCI-H358. The format is cell-based, human. The following applies: Homo sapiens, NCI-H358, 120 h, NCI-H358, 5-day treatment; class symbols; read-out: Additional H358 Cell Viability assay data (K-Ras G12C, IC50). Summed up:
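Cells seeded, compound added directly, 5-day exposure. Plates to RT ~30 min, CellTiter-Glo luminescence read. Normalized to DMSO avg (x100); 4-parameter logistic fit.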
(Cellular ATP, detected with luciferase, serves as a proxy for viable cell number.)

Where [2] appears, read: Ras-Raf disruption/FRET/MOA assay, read-out: KRAS G12D FRET data IC50.
Where [3] appears, read: read-out: IC50* KRAS G13D FRET data.
The mark [4] stands for this setting: read-out: IC50* KRAS G12C FRET data.
The mark [5] stands for this setting: read-out: IC50* KRAS G13C FRET data.
[6] abbreviates: read-out: IC50* NRAS G12C FRET data.
Where [7] appears, read: read-out: IC50* KRAS WT FRET data.
Setting [8] is: Ras-Raf disruption/FRET/MOA assay, read-out: KRAS G12S FRET data IC50.
[9] abbreviates: read-out: IC50* KRAS G12V FRET data.

KRAS G12D, sequence (P01116-2 other isoform, or with tags, fused parts or gaps G12D): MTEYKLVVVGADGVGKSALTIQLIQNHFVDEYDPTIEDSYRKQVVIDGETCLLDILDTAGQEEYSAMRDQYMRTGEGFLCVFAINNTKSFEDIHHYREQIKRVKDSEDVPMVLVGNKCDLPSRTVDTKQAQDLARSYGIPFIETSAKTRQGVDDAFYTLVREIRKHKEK
KRAS G12D, sequence (P62937 whole entry): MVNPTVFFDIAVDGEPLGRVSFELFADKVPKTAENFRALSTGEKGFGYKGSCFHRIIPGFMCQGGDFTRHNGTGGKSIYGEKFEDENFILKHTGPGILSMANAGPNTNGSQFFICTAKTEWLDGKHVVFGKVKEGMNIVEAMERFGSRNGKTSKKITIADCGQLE
KRAS G12V, sequence (P01116-2 other isoform, or with tags, fused parts or gaps G12V): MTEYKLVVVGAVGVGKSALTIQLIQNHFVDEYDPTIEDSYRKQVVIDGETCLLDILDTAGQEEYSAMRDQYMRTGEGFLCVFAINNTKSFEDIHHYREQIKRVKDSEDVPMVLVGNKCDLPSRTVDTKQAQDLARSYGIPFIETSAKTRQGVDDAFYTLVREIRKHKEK
KRAS G12V, sequence (P62937 whole entry): as the sequence (P62937 whole entry) above
K-Ras G13C, sequence (P01116-2 other isoform, or with tags, fused parts or gaps G13C): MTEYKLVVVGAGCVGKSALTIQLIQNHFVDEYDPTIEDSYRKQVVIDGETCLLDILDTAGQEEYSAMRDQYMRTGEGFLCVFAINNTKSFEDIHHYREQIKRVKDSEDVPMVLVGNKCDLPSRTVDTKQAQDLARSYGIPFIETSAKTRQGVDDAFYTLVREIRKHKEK
K-Ras G13C, sequence (P62937 whole entry): as the sequence (P62937 whole entry) above
KRAS G12S, sequence (P01116-2 other isoform, or with tags, fused parts or gaps G12S): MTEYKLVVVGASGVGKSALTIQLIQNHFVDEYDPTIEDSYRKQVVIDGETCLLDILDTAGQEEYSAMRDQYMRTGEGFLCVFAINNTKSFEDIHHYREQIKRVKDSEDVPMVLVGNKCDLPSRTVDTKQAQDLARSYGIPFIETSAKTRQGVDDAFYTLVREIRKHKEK
KRAS G12S, sequence (P62937 whole entry): as the sequence (P62937 whole entry) above
NRAS G12C, sequence (P01111 whole entry G12C): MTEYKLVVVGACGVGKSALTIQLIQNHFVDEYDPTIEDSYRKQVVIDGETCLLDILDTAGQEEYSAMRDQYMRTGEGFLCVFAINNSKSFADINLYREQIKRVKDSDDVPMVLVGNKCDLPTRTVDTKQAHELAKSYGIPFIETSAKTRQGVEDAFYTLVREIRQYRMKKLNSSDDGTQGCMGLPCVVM
NRAS G12C, sequence (P62937 whole entry): as the sequence (P62937 whole entry) above
K-Ras G12C, sequence (P01116-2 other isoform, or with tags, fused parts or gaps G12C): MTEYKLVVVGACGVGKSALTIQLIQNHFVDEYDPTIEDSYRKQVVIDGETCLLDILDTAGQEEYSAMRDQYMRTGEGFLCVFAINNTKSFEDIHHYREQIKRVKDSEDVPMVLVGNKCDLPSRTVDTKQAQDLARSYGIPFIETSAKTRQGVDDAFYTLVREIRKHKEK
K-Ras G12C, sequence (P62937 whole entry): as the sequence (P62937 whole entry) above
KRAS WT, sequence (P01116-2 other isoform, or with tags, fused parts or gaps): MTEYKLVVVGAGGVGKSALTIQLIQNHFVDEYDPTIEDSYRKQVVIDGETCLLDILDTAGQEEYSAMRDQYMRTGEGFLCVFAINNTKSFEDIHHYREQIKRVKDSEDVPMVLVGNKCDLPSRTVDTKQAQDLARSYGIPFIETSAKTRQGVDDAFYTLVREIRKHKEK
KRAS WT, sequence (P62937 whole entry): as the sequence (P62937 whole entry) above
KRAS G13D, sequence (P01116-2 other isoform, or with tags, fused parts or gaps G13D): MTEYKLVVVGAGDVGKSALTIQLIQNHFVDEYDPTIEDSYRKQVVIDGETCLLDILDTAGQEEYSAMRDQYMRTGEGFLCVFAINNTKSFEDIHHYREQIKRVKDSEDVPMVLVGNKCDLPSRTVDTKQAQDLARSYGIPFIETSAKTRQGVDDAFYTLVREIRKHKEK
KRAS G13D, sequence (P62937 whole entry, canonical isoform): as the sequence (P62937 whole entry) above

With `C=CC(=O)N1CC(CN2C(=O)O[C@H](C)[C@H]2C(=O)N[C@H]2Cc3cccc(c3)-c3ccc4c(c3)c(c(-c3cccnc3[C@H](C)OC)n4CC)CC(C)(C)COC(=O)[C@@H]3CCCN(N3)C2=O)C1` (atropisomer, axis not shown) [Example A460], the IC50 on KRAS G12D (KRAS G12D FRET data IC50, Ras-Raf disruption/FRET/MOA assay) is more than 10000 nM; against KRAS G13D (IC50* KRAS G13D FRET data), more than 10000 nM; at K-Ras G12C (IC50* KRAS G12C FRET data), 1000 to 10000 nM; on K-Ras G13C (IC50* KRAS G13C FRET data) it was 1000 to 10000 nM; against KRAS G12V (IC50* KRAS G12V FRET data), more than 10000 nM; at NRAS G12C (IC50* NRAS G12C FRET data), 1000 to 10000 nM. The IC50 at KRAS WT (IC50* KRAS WT FRET data) was more than 10000 nM; against KRAS G12S (KRAS G12S FRET data IC50, Ras-Raf disruption/FRET/MOA assay) it was more than 10000 nM.
In the case of `C=CC(=O)N1CCN(C(=O)N(C)[C@H](C(=O)N[C@H]2Cc3nc(cs3)-c3ccc4c(c3)c(c(-c3cccnc3[C@H](C)OC)n4CC(F)(F)F)CC(C)(C)COC(=O)[C@@H]3CCCN(N3)C2=O)C(C)C)CC1` (atropisomer, axis not shown) [Example A465], the IC50 at KRAS G12D (setting [2]), on KRAS G13D (setting [3]), at K-Ras G12C (setting [4]), on K-Ras G13C (setting [5]), on NRAS G12C (setting [6]) and on KRAS WT (setting [7]) was 10 to 100 nM each time. In addition, the IC50 on KRAS G12S (setting [8]) was in the range of 10 to 100 nM. Besides, in assay [1], the EC50 was less than 5000 nM.
For the compound `C=CC(=O)N1CC[C@H](C(=O)N(C)[C@H](C(=O)N[C@H]2Cc3cccc(c3)-c3ccc4c(c3)c(c(-c3cc(C5=CCN(C)CC5)cnc3[C@H](C)OC)n4CC)CC(C)(C)COC(=O)[C@@H]3CCCN(N3)C2=O)C(C)C)C1` (atropisomer, axis not shown) [Example A514], the IC50 was more than 10000 nM at KRAS G12D (setting [2]); more than 10000 nM on KRAS G13D (setting [3]); 1000 to 10000 nM at K-Ras G12C (setting [4]); 1000 to 10000 nM at K-Ras G13C (setting [5]); more than 10000 nM on KRAS G12V (setting [9]); 1000 to 10000 nM at NRAS G12C (setting [6]). The IC50 on KRAS WT (setting [7]) and at KRAS G12S (setting [8]) was more than 10000 nM throughout.
With `C=CC(=O)N1CC[C@H](C(=O)N(C)[C@H](C(=O)NC2C[C@H]3CN(CCCO3)c3ccc4c(c3)c(c(-c3cccnc3[C@H](C)OC)n4CC)CC(C)(C)COC(=O)[C@@H]3CCCN(N3)C2=O)C(C)C)C1` (single isomer, unassigned) [Example A405], the IC50 on KRAS G12D (setting [2]), at KRAS G13D (setting [3]), on K-Ras G13C (setting [5]), on KRAS G12V (setting [9]), at NRAS G12C (setting [6]) and on KRAS WT (setting [7]) was more than 10000 nM in each case. Moreover, the IC50 with NCI-H358 (K-Ras G12C) is more than 1000 nM; on KRAS G12S (setting [8]), more than 10000 nM.
Take `CCn1c(-c2cccnc2COC)c2c3cc(ccc31)-c1cc(O)cc(c1)C[C@H](NC(=O)[C@H](C(C)C)N(C)C(=O)[C@H]1CCN(C(=O)/C=C/CN(C)C)C1)C(=O)N1CCC[C@H](N1)C(=O)OCC(C)(C)C2` [Example A054]: the IC50 at KRAS G12D (setting [2]) lay within 100 to 1000 nM; on KRAS G13D (setting [3]), 100 to 1000 nM; at K-Ras G12C (setting [4]), 10 to 100 nM; on K-Ras G13C (setting [5]), 100 to 1000 nM; at KRAS G12V (setting [9]), 100 to 1000 nM; at NRAS G12C (setting [6]), 10 to 100 nM. Also, the IC50 on KRAS WT (setting [7]) and at KRAS G12S (setting [8]) was 100 to 1000 nM in each case.
